“And” between values parts separate entries of the source, which are not always exact repeats. Identical values can stand only once.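 Briefly, cells in 96-well plates were exposed to five compound concentrations for 48 h, and endpoints were estimated by linear interpolation. At the GI50, growth is halved. TGI denotes the concentration required for complete inhibition of growth.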 Where a SMILES comes first, the peptide text is derived from it. [ ]: non-standard residue; d: D form. Phe(F5) = N[CH](Cc1c(F)c(F)c(F)c(F)c1F)C(=O)O
What was measured:
Assay in all cases: NCI anticancer screen, dose series, 48 h
A498 renal = tested on: A498 renal
A549 NSCLC = tested on: A549 NSCLC
EKVX NSCLC = tested on: EKVX NSCLC
K-562 leukemia = tested on: K-562 leukemia
MCF7 breast = tested on: MCF7 breast
MDA-MB-231 breast = tested on: MDA-MB-231 breast
OVCAR-4 ovarian = tested on: OVCAR-4 ovarian
SF-268 CNS = tested on: SF-268 CNS
SK-MEL-28 melanoma = tested on: SK-MEL-28 melanoma
UO-31 renal = tested on: UO-31 renal

| SMILES | GI50 (A498 renal) [µM] | TGI (A498 renal) [µM] | GI50 (A549 NSCLC) [µM] | TGI (A549 NSCLC) [µM] | GI50 (EKVX NSCLC) [µM] | TGI (EKVX NSCLC) [µM] | GI50 (K-562 leukemia) [µM] | TGI (K-562 leukemia) [µM] | GI50 (MCF7 breast) [µM] | TGI (MCF7 breast) [µM] | GI50 (MDA-MB-231 breast) [µM] | TGI (MDA-MB-231 breast) [µM] | GI50 (OVCAR-4 ovarian) [µM] | TGI (OVCAR-4 ovarian) [µM] | GI50 (SF-268 CNS) [µM] | TGI (SF-268 CNS) [µM] | GI50 (SK-MEL-28 melanoma) [µM] | TGI (SK-MEL-28 melanoma) [µM] | GI50 (UO-31 renal) [µM] | TGI (UO-31 renal) |
| --- | --- | --- | --- | --- | --- | --- | --- | --- | --- | --- | --- | --- | --- | --- | --- | --- | --- | --- | --- | --- |
| CCc1ccc(NC(=O)Nc2c[nH]c3ccccc23)cc1 | > 46 | > 72.8 | 6.26 | > 48 | 9.2 | > 55 | 6.89 | > 100 | 29.3 | > 65.5 | 3.2 | > 36.9 | 10.1 | > 54.7 | 4.24 | > 43.4 | > 39 | > 56.6 | 1.62 | > 58 µM |
| COc1cc2nc(Cl)nc(Nc3cccc(C(=O)/C=C/c4ccccc4)c3)c2cc1OC | > 25 | > 66.5 | > 38.7 | > 100 | > 33.7 | > 100 | 1.74 | > 100 | 1.81 | > 100 | 6.4 | > 92.4 | 5.5 | 33.3 | 4.99 | 81.4 | 5.03 | > 100 | 17.8 | > 100 µM |
| Nc1ncnc2c1ccn2C1OC2COP(=O)(O)OC2C1O (centres undefined) | – | 28.2 | – | 12.8 | – | 57.7 | – | 19 | – | > 100 | – | 12.2 | – | 9.6 | – | 8.06 | – | 14.2 | – | > 100 µM |
| CCN(CC)c1ccc(/C=C/c2cc(C)c3ccccc3n2)cc1 | 2.32 | 15.4 | 3.99 | > 100 | 4.95 | 44.9 | 0.64 | 15 | 2.31 | 75.8 | 3.54 | 13.3 | 8.37 | > 100 | 5.46 | 74.4 | 6.75 | > 100 | 3.18 | 15 µM |
| CC12CCC=CC1CCC1C2CCC2(C)C(c3ccc(=O)oc3)CCC12O (centres undefined) | 0.0496 | 0.457 | 0.0295 | 0.111 | 0.0636 | 0.193 | 0.0587 | – | 0.0766 | 1.18 | 0.365 | 2.57 | 0.167 | 0.641 | 0.041 | 0.253 | 0.256 | 1.38 | 0.0647 | 0.189 µM |
| COC(=O)C(CC(C)C)NC(=O)C(Cc1cnc[nH]1)NC(=O)CNC(=O)C(NC(=O)C(C)NC(=O)C(Cc1c[nH]c2ccccc12)NC(=O)C(CCC(=O)O)NC(=O)C(N)Cc1c(F)c(F)c(F)c(F)c1F)C(C)C (centres undefined) (H-[Phe(F5)]EWAVGHL-OMe; configuration not given here) | > 100 | > 100 | > 100 | > 100 | > 100 | > 100 | > 100 | > 100 | – | > 12.5 | – | > 12.5 | > 100 | > 100 | – | > 12.5 | > 100 | > 100 | 0.991 | > 12.5 µM and 56 µM |
| Cc1cc(N2CCCCC2)nc(N(CCNc2ccnc3cc(Cl)ccc23)Cc2ccco2)n1 | 1.92 | 5.09 | 2.69 | 7.74 | 2.09 | 6.07 | 1.54 | 4.03 | 1.59 | 3.19 | 1.83 | 3.53 | 1.8 | 4.42 | 2.57 | 6.53 | 1.83 | 3.75 | 1.41 | 2.77 µM |
| Fc1ccc(-c2nc3n(c2-c2ccncc2)CCS3)cc1 | > 25 | > 25 | > 25 | > 25 | > 25 | > 25 | > 25 | > 25 | > 25 | > 25 | > 25 | > 25 | 9.67 | > 25 | > 25 | > 25 | > 25 | > 25 | 8.26 | > 25 µM |
| C=C1C(=O)O[C@@H]2C1CC(=O)C(C)CC/C=C(\C)CCC[C@H](C)[C@H]2OC(C)=O (some centres undefined) | 20.7 | 35.4 | 19.6 | 38.7 | 16.3 | 31.5 | 3.52 | 15.3 | 4.81 | 35.6 | 15.5 | 33.5 | 15.2 | 32 | 20.5 | 41.3 | 11.8 | 25.3 | 11.9 | 29.5 µM |
| O=c1cc(CNc2cc(F)cc(F)c2)c2ccc(I)cc2[nH]1 | 0.279 | – | 0.707 | > 100 | 2.33 | > 100 | 0.203 | > 100 | 0.388 | > 100 | 77.8 | > 100 | 72.7 | > 100 | – | > 100 | > 67.3 | > 100 | 4.27 | > 100 µM |
| Fc1ccc2[nH]cc(Cc3c[nH]c4ccc(F)cc34)c2c1 | 15 | 31.8 | 17.3 | 50.9 | 17.6 | 41.8 | 32.4 | > 100 | 35.6 | > 100 | 16.7 | 46.5 | 32 | > 100 | 17.5 | 77.6 | 25.3 | 76.7 | 13.7 | 33.7 µM |
| CC(C)(O)c1ccc(N2CCN(c3nnc(Cc4ccccc4)c4ccccc34)CC2)nc1 | 13.9 | 42.5 | 6.98 | 25.1 | 4 | 19.8 | 4.81 | > 72.9 | 7.05 | 21.7 | 5.95 | 32.2 | 3.99 | 26.3 | 13.8 | 33.5 | 12 | 24.9 | 3.49 | 19.5 µM |
